Measured values as given in US12048281B2, “Method for treating post-emergent rice” (BASF SE, priority 2009, dated 2024).

Assays:
[1] = test system: transgenic Indica1 rice callus, ACC gene containing I1781(Am)L and I2041(Am)N; test: Growth of transgenic Indica1 callus on selection media; format: cell-based, Oryza sativa; settings: construct I1781(Am)L
Description: (§1) Indica1 and Nipponbare rice callus transformation was carried out essentially as described in Hiei and Komari (2008) with the exception of media substitutions as specified (see attached media table for details). Callus was induced on R001M media for 4-8 weeks prior to use in transformation. Agrobacterium utilized was LBA4404(pSB1) (Ishida et al. 1996) transformed with RLM185 (L. Mankin, unpublished: contains DsRed and a mutant AHAS for selection), ACC gene containing I1781(Am)L, ACC gene containing I1781(Am)L and W2027C, ACC gene containing I1781(Am)L and I2041(Am)N, or ACC gene containing I1781(Am)A or wild type which also contains a mutant AHAS gene for selection. Agrobacterium grown for 1-3 days on solid media was suspended in M-LS-002 medium and the OD660 adjusted to approximately 0.1. Callus was immersed in the Agrobacterium solution for approximately 30 minutes. Liquid was removed, and then callus was moved to filter paper for co-culture on semi-solid rice cc media. Co-culture was for 3 days in the dark at 24° C. Filters containing rice callus were directly transferred to R001M media containing Timentin for 1-2 weeks for recovery and cultured in the dark at 30° C. Callus was subdivided onto fresh R001M media with Timentin and supplemented with 100 μM Imazethapyr, 10 μM Cycloxydim or 2.5 μM Tepraloxydim. After 3-4 weeks, callus was transferred to fresh selection media. Following another 3-4 weeks, growing callus was transferred to fresh media and allowed to grow prior to Taqman analysis. Taqman analysis was for the Nos terminator and was conducted to provide for a molecular confirmation of the transgenic nature of the selected calli. Growth of transgenic calli was measured with various selection agents by subculturing calli on media containing either 10 μM Cycloxydim or Haloxyfop, 2.5 μM Tepraloxydim or 100 μM Imazethapry. Calli size was measured from scanned images following initial subculture and then after approximately 1 month of growth.
(§2) As can be observed in Table 7, the double mutant constructs allowed for growth on both Cycloxydim and Tepraloxydim in addition to Haloxyfop. The levels utilized in these growth experiments are inhibitory for wild type material. Growth was measured as a % change in size following 1 month of culture on the selection media.

[2] = test system: transgenic Indica1 rice callus, ACC gene containing I1781(Am)L and W2027(Am)C; test: as above; format: cell-based, Oryza sativa; settings: construct I1781(Am)L
Description: as §1, §2

[3] = test system: rice plants containing the I1,781(Am)L heterozygous mutation; format: in vivo, Oryza sativa; settings: 400-1600 g ai/ha with 0.1% methylated seed oil; rated 1 and 2 weeks after treatment
Description: (§3) Selected mutants and escapes were transferred to small pots. Wild-type cultivars and 3 biovars of red rice were germinated from seed to serve as controls.
(§4) After ca. 3 weeks post-transplant. M0 regenerants were sprayed using a track sprayer with 400-1600 g ai/ha cycloxydim (BAS 517H) supplemented with 0.1% methylated seed oil. After the plants had adapted to greenhouse conditions, a subset were sprayed with 800 g ai/ha cycloxydim. Once sprayed, plants were kept on drought conditions for 24 hours before being watered and fertilized again. Sprayed plants were photographed and rated for herbicide injury at 1 (FIG. 3) and 2 weeks after treatment (FIG. 4). […] FIGS. 5-15 provide nucleic acid and/or amino acid sequences of acetyl-Coenzyme A carboxylase enzymes from various plants. FIG. 17 provides a graph showing results for mutant rice versus various ACCase inhibitors.

[4] = test system: control plants (wild-type cultivars, red rice) and tissue culture escapes; test: Greenhouse track-sprayer test, herbicide injury rating; format: in vivo, Oryza sativa; settings: 400-1600 g ai/ha with 0.1% methylated seed oil; rated 1 and 2 weeks after treatment
Description: as §3, §4

[5] = test system: ACCase-inhibitor tolerant rice plants; test: Field treatment of ACCase-inhibitor tolerant rice; format: in vivo, Oryza sativa; settings: 600 g/ha; data not shown

## CC/C(=N\OC/C=C/Cl)C1=C(O)CC(C2CCOCC2)CC1=O (centres unmarked) [tepraloxydim]
[1]; 2.5 μM in selection media
  Growth, % change in size following 1 month of culture on the selection media: 1360%
[2]; 2.5 μM in selection media
  Growth, % change in size following 1 month of culture on the selection media: 1416%

## CCCC(=NOCC)C1=C(O)CC(C2CCCSC2)CC1=O (centres unmarked) [cycloxydim]
[3]
  herbicide injury: No injury
[4]
  herbicide injury: heavily damaged
[5]
  herbicide tolerance in the field: Herbicide tolerance phenotypes as described herein have also been exhibited
[1]; 10 μM in selection media
  Growth, % change in size following 1 month of culture on the selection media: 884%
[2]; 10 μM in selection media
  Growth, % change in size following 1 month of culture on the selection media: 867%

## CC(Oc1ccc(Oc2ncc(C(F)(F)F)cc2Cl)cc1)C(=O)O (centres unmarked) [haloxyfop]
[1]; 10 μM in selection media
  Growth, % change in size following 1 month of culture on the selection media: 1613%
[2]; 10 μM in selection media
  Growth, % change in size following 1 month of culture on the selection media: 1669%

## CCc1cnc(C2=NC(C)(C(C)C)C(=O)N2)c(C(=O)O)c1 (centres unmarked) [P100, Imazethapyr]
[1]; 100 μM in selection media
  Growth, % change in size following 1 month of culture on the selection media: 634%
[2]; 100 μM in selection media
  Growth, % change in size following 1 month of culture on the selection media: 739%
